Assay results from patent US9808450B2, “Solid forms comprising 3-(4-amino-1-OXO-1,3-dihydro-isoindol-2-yl)-piperidine-2,6-dione and a coformer, compositions and methods of use thereof” (CELGENE CORPORATION, priority 2013, dated 2017).
In brackets after ≈: the same amount, converted by molar mass.

Experiments:
[1] = Estimated solubility of lenalidomide in solvents at ambient temperature (aliquot addition, visual inspection); type: physicochemical; conditions: organic solvent or mixture, thermodynamic from solid
Experimental: Solubility was estimated by treating a weighed sample of lenalidomide with measured aliquots of the test solvent at ambient temperature, with shaking and/or sonication between aliquots. Dissolution was determined by visual inspection. Solubility numbers were calculated by dividing the total amount of solvent used to dissolve the sample by the weight of the sample. The actual solubilities may be greater than the numbers calculated because of the use of solvent aliquots that were too large or because of slow dissolution rates. […] The solubility number is expressed as “greater than” if dissolution occurred on addition of the first solvent aliquot.

[2] = test system: cells derived from patients with multiple myeloma and del (5q) myelodysplastic syndromes; conditions: cells from patients with multiple myeloma and del (5q) MDS; cited from earlier work
[3] = test system: hematopoietic tumor models, including multiple myeloma; conditions: some in vivo nonclinical hematopoietic tumor models; cited from earlier work
[4] = test system: tumor necrosis factor alpha (TNF-α); conditions: peripheral blood mononuclear cells; cited from earlier work
[5] = test system: cyclooxygenase-2 (COX-2); conditions: in vitro; cited from earlier work
[6] = test system: COX-1; conditions: in vitro; cited from earlier work

solubility ([1]; acetone): 2200 µg/mL (≈ 8.49 mM)
solubility ([1]; acetonitrile): 3400 µg/mL (≈ 13.1 mM)
solubility ([1]; methanol): 2600 µg/mL (≈ 10 mM)
solubility ([1]; tetrahydrofuran): 3000 µg/mL (≈ 11.6 mM)
Compound: Nc1cccc2c1CN(C1CCC(=O)NC1=O)C2=O (stereo not drawn) [Lenalidomide, 3-(4-amino-1-oxo-1,3-dihydro-isoindol-2-yl)-piperidine-2,6-dione]
Growth of cells in vitro [2]: inhibits the growth
Tumor growth [3]: delay in tumor growth
Secretion of TNF-α [4]: inhibits the secretion
Expression of COX-2 [5]: inhibited the expression
Expression of COX-1 [6]: not
